Source: patent US20210207082A1, “SPHERICAL 3D TUMOR SPHEROID” (KOREA INSTITUTE OF SCIENCE AND TECHNOLOGY, priority 2019, published 2021)

Tests used:
[1] = tested on: 3D multicellular tumor spheroids (ASC, BMSC or FIB + MDA-MB-231); test: Necrosis (PI) assay, three types of 3D spheroids; assay type: cell-based, human; details: 10 μM doxorubicin, 48 hours
Method: (§1) Apoptotic and necrotic cells in spheroids were assayed using Real Time-Glo™ Annexin V apoptosis and necrosis assays. Real Time-Glo™ Annexin V apoptosis and necrosis assays were performed in combination with a cell viability assay. […] Thereafter, 2X apoptosis and necrosis formulations of the same volume (100 μL) were added to each well according to standard protocol proposed in manufacturer's instructions.
(§2) To investigate drug sensitivity depending on the viability against doxorubicin in the spheroids, Real Time-Glo™ Annexin V apoptosis and necrosis assays were performed. If apoptosis is induced by a drug response, a cell membrane is reversed to expose phosphatidyl-serine (PS), and an apoptotic cell can be analyzed by binding PS with Annexin V detected by a luminescence signal. A necrotic cell is detected by binding DNA with PI (green) that produces a fluorescence signal when the necrotic cell invades into a cell and a cell membrane loses integrity.

ASC+MDA-MB-231 spheroid [2] = test: Real Time-Glo Annexin V apoptosis assay, 3D spheroid; assay type: cell-based, human; details: 10 μM doxorubicin, 48 hours
Method: as §1, §2

BMSC+MDA-MB-231 spheroid [3] = test: as above; assay type: cell-based, human; details: 10 μM doxorubicin, 48 hours
Method: as §1, §2

FIB+MDA-MB-231 spheroid [4] = test: as above; assay type: cell-based, human; details: 10 μM doxorubicin, 48 hours
Method: as §1, §2

FIB+MDA-MB-231 spheroid [5] = test: Real Time-Glo MT cell viability assay, 3D multicellular tumor spheroid; assay type: cell-based; details: Homo sapiens, 48 h; 10 μM doxorubicin for two days
[6] = tested on: three types of 3D spheroids versus 2D monolayer; test: 3D versus 2D comparison of cell viability; assay type: cell-based, human; details: doxorubicin
BMSC+MDA-MB-231 spheroid [7] = test: Real Time-Glo MT cell viability assay, 3D multicellular tumor spheroid; assay type: cell-based; details: Homo sapiens, 48 h; 10 μM doxorubicin for two days
ASC+MDA-MB-231 spheroid [8] = test: as above

COc1cccc2c1C(=O)c1c(O)c3c(c(O)c1C2=O)C[C@@](O)(C(=O)CO)C[C@@H]3O[C@H]1C[C@H](N)[C@H](O)[C@H](C)O1 [doxorubicin]
necrosis (PI), difference between spheroid types [1]: No significant difference | apoptosis (Annexin V) fold change (ASC+MDA-MB-231 spheroid [2]): 9 fold | apoptosis (Annexin V) fold change (BMSC+MDA-MB-231 spheroid [3]): 10 fold | apoptosis (Annexin V) fold change (FIB+MDA-MB-231 spheroid [4]): about 13 times | viability at 10 µM (FIB+MDA-MB-231 spheroid [5]): 43% | drug sensitivity of 3D spheroids compared with 2D monolayer [6]: lower drug sensitivity | viability at 10 µM (BMSC+MDA-MB-231 spheroid [7]): 48.3% | cell viability (ASC+MDA-MB-231 spheroid [8]; 10 μM doxorubicin for two days): 56.67% | viability, compared with other co-culture ratios (ASC+MDA-MB-231 spheroid [8]; ASC:MDA-MB-231 co-culture ratio 5:5, 10 μM doxorubicin, 48 hours): highest
